# Data: ChEMBL document CHEMBL5236631, “Design, synthesis and biological evaluation of novel 3,4-dihydro-2H-[1,4]oxazino [2,3-f]quinazolin derivatives as EGFR-TKIs” (Bioorg Med Chem Lett, 2023)
# Tests used:
# [1] = target: Epidermal growth factor receptor (Homo sapiens, UniProt P00533); experiment: Inhibition of wild type EGFR (unknown origin) autophosphorylation by Kinase-Glo luminescent assay
# [2] = tested on: NCI-H1563; experiment: Antiproliferative activity against human NCI-H1563 cells assessed as inhibition of cell growth; assay type: functional, cell-based
# [3] = tested on: NCI-H1975; experiment: Antiproliferative activity against human NCI-H1975 cells harboring T790M mutation assessed as inhibition of cell growth; assay type: functional, cell-based
# [4] = Cytotoxicity against human 16HBE14o- cells assessed as inhibition of cell growth by MTT assay; assay type: toxicity, cell-based
# Epidermal growth factor receptor, sequence (P00533 whole entry): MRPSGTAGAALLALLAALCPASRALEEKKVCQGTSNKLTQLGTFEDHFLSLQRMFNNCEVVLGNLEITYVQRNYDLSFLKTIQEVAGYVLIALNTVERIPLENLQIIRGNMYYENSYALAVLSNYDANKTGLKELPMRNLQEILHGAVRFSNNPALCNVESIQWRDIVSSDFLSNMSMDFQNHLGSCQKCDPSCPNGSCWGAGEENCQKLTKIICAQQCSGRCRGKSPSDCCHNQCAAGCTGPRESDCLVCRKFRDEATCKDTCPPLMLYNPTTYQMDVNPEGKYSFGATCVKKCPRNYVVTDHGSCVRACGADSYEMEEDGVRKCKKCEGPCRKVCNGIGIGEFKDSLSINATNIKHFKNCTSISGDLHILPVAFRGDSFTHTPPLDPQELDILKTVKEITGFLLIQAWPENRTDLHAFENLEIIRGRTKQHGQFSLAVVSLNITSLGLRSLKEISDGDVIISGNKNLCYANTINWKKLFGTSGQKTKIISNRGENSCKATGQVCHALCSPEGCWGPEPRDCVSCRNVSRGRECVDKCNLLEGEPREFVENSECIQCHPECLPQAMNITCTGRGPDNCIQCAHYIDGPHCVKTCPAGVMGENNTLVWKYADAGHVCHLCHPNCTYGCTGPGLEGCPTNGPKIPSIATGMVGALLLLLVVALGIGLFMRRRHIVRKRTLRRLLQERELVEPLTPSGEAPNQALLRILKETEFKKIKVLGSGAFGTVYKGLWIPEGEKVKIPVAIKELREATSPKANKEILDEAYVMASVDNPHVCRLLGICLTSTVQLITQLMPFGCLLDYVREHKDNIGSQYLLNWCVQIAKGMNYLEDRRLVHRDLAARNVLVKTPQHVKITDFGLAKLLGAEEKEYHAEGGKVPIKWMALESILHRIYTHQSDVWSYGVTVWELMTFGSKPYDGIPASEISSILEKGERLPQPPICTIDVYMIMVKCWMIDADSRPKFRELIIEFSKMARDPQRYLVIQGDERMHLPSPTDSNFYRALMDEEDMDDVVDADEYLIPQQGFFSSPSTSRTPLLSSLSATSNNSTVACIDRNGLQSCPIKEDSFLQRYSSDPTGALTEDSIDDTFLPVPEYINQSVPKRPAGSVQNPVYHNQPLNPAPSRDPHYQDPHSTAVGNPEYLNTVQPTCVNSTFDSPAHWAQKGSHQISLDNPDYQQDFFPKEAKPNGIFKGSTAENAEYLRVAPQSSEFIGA
structure (smiles),measurement,setting,value
CC(=O)N1CCOc2c1ccc1ncnc(Nc3cccc(Br)c3)c21,IC50,[1],45.6 nM
same,IC50,[2],> 40000 nM
same,IC50,[3],> 40000 nM
same,CC50,[4],1400 nM
CCC(=O)N1CCOc2c1ccc1ncnc(Nc3cccc(Br)c3)c21,IC50,[1],70.3 nM
same,IC50,[2],24800 nM
same,IC50,[3],3600 nM
same,CC50,[4],1250 nM
CC(=O)N1CCOc2c1ccc1ncnc(Nc3ccc(F)c(Cl)c3)c21,IC50,[1],47.2 nM
same,IC50,[2],> 40000 nM
same,IC50,[3],> 40000 nM
C#Cc1cccc(Nc2ncnc3cc(OCCOC)c(OCCOC)cc23)c1 [ERLOTINIB],IC50,[2],8170 nM
same,IC50,[3],4670 nM
same,CC50,[4],1320 nM
Fc1ccc(Nc2ncnc3ccc4c(c23)OCCN4)cc1Cl,IC50,[1],87.3 nM
same,IC50,[2],< 1250 nM
same,IC50,[3],1600 nM
same,CC50,[4],130 nM
COCCOc1cc2ncnc(Nc3cccc(Cl)c3)c2c2c1OC(COC)CO2 (stereo not given),IC50,[1],10.3 nM
CCC(=O)N1CCOc2c1ccc1ncnc(Nc3ccc(F)c(Cl)c3)c21,IC50,[1],70.6 nM
same,IC50,[2],> 40000 nM
same,IC50,[3],> 40000 nM
FC(F)(F)c1cccc(Nc2ncnc3ccc4c(c23)OCCN4)c1,IC50,[1],938 nM
same,IC50,[2],> 40000 nM
same,IC50,[3],4180 nM
CN1CCN(CCC(=O)N2CCOc3c2ccc2ncnc(Nc4cccc(C(F)(F)F)c4)c32)CC1,IC50,[1],148 nM
same,IC50,[2],21200 nM
same,IC50,[3],4370 nM
CN1CCN(CCC(=O)N2CCOc3c2ccc2ncnc(Nc4cccc(Br)c4)c32)CC1,IC50,[1],40.7 nM
same,IC50,[2],12500 nM
same,IC50,[3],4160 nM
same,CC50,[4],1350 nM
CN1CCN(CCC(=O)N2CCOc3c2ccc2ncnc(Nc4ccc(F)c(Cl)c4)c32)CC1,IC50,[1],25.7 nM
same,IC50,[2],10600 nM
same,IC50,[3],3250 nM
same,CC50,[4],1240 nM
Brc1cccc(Nc2ncnc3ccc4c(c23)OCCN4)c1,IC50,[1],120 nM
same,IC50,[2],< 1250 nM
same,IC50,[3],15600 nM
CCC(=O)N1CCOc2c1ccc1ncnc(Nc3cccc(C(F)(F)F)c3)c21,IC50,[1],838 nM
same,IC50,[2],> 40000 nM
same,IC50,[3],> 40000 nM
CC(=O)N1CCOc2c1ccc1ncnc(Nc3cccc(C(F)(F)F)c3)c21,IC50,[1],534 nM
same,IC50,[2],> 40000 nM
same,IC50,[3],> 40000 nM
